Data on seven compounds can be found in patent publication US6140360A, “Antifungal agent” (TOA Gosei Co., Ltd., priority 1996, dated 2000).

In data set [1] the test system is Candida albicans. The data set is described as follows: Infection-Treating Test, Candida albicans infected mice. Conditions: oral in sesame oil, first dose 1 hour after i.v. inoculation (1.0×10^6 CFU/mouse), once a day, total seven days, survival, Weil method. The data set is classed as in vivo, mice (ICR). As to the method:
(§1) Candida albicans (1.0×10^6 CFU/mouse) or Aspergillus fumigatus (2.0×10^6 CFU/mouse) was suspended in physiological saline, and a 0.2 ml portion of each solution was injected into healthy grown mice (ICR, 4 week-old, female, 19-22 g, Nihon CLEA) via the caudal vein to establish infection. Cryptoporic acid H was dissolved in sesame oil in prescribed concentrations, and a 0.2 ml portion was orally administered per dose to the mice through a stomach probe. The first administration was conducted 1 hour after inoculation of fungi. Thereafter, administration was conducted six times (once a day every 24 hours; for a total of seven days). only the base (0.2 ml) was administered to the control group. Treatment effectiveness was evaluated with ED50 by using the Weil method from the survival rate of treated mice when all the control animals died.

The subject of data set [2] is Aspergillus fumigatus. The data set is described as follows: Infection-Treating Test, Aspergillus fumigatus infected mice. It is filed as in vivo, mice (ICR). Conditions: oral in sesame oil, first dose 1 hour after i.v. inoculation (2.0×10^6 CFU/mouse), once a day, total seven days, survival, Weil method. As to the method: as §1
Another data set is described as follows: Solubility. Conditions: in methanol, acetone, and ethyl acetate. It is filed as physicochemical.
Data set [3] concerns Candida albicans. Nature of the data set: in vitro antifungal activity (MIC). The data set is classed as cell-based. How it is done: Using Candida albicans, Aspergillus niger, Aspergillus fumigatus, and Cryptococcus neoformans as test fungi, in vitro antifungal activities were determined to confirm the antifungal activities of cryptoporic acids A, B, and D. The test method and the results are shown below.
The fungal strains used for this test were standard strains provided by Teikyo University, Institute of Medical Mycology. Drug sensitivity was measured using Yeast Morphology Agar (Difco) as media.
The test fungi were spread over slant made of a potato dextrose agar medium (NissuiSeiyaku) and cultured at 30° C. for one day (Candida, Cryptococcus) or four days (Aspergillus niger, Aspergillus neoformans). After culturing, fungi on the slant were washed away with sterile physiological saline supplemented with 0.1% Tween 80. The solution was passed through a filter with 15 μm pores. The fungi were counted on a hemocytometer and adjusted to 10^5 CFU/ml to serve as an inoculation solution. A 0.02 ml portion of this solution was inoculated into Yeast Morphology Agar containing test agents by two-fold serial dilution and cultured at 30° C. for 1 or 4 days.
Antifungal effect was judged with naked eyes. Concentrations at which evident inhibition of growth was observed compared with control media containing no drug were taken as MIC values.
Candida albicans, Aspergillus niger, Aspergillus fumigatus, and Cryptococcus neoformans were used as test fungi. The test for in vitro antifungal activity was conducted in the same manner as in 1 above to confirm antifungal activity.
3. In vitro antifungal activities of cryptoporic acid derivatives represented by formula 3 and a commercially available antifungal agent, Diflucan, were tested using Candida albicans as test fungi in the same manner.

Data set [4] has as its system Aspergillus fumigatus. The data set is described as follows: in vitro antifungal activity (MIC). The data set is classed as cell-based. Conditions: Table 2, Yeast Morphology Agar, 30° C. How it is done:
Using Candida albicans, Aspergillus niger, Aspergillus fumigatus, and Cryptococcus neoformans as test fungi, in vitro antifungal activities were determined to confirm the antifungal activities of cryptoporic acids A, B, and D. The test method and the results are shown below. The fungal strains used for this test were standard strains provided by Teikyo University, Institute of Medical Mycology. Drug sensitivity was measured using Yeast Morphology Agar (Difco) as media. The test fungi were spread over slant made of a potato dextrose agar medium (NissuiSeiyaku) and cultured at 30° C. for one day (Candida, Cryptococcus) or four days (Aspergillus niger, Aspergillus neoformans). After culturing, fungi on the slant were washed away with sterile physiological saline supplemented with 0.1% Tween 80. The solution was passed through a filter with 15 μm pores. The fungi were counted on a hemocytometer and adjusted to 10^5 CFU/ml to serve as an inoculation solution. A 0.02 ml portion of this solution was inoculated into Yeast Morphology Agar containing test agents by two-fold serial dilution and cultured at 30° C. for 1 or 4 days. Antifungal effect was judged with naked eyes. Concentrations at which evident inhibition of growth was observed compared with control media containing no drug were taken as MIC values. […]

The mark [5] stands for this setting: 24 h, Table 1, Yeast Morphology Agar, 30° C., 1 day, read-out: MIC (Candida albicans).

SMILES strings stand for the structures. Converted amounts (≈) assume the structure as drawn. Read-outs that look alike come from different tables or passages of the source.

As for `C=C1CC[C@H]2C(C)(C)CCC[C@]2(C)[C@H]1COC(C(=O)O)C(CC(=O)O)C(=O)O` (stereo partly drawn) [Cryptoporic acid H], the ED50 with Candida albicans [1] is 0.32 mg/kg; with Aspergillus fumigatus [2], 2 mg/kg. For `C=C1CC[C@H]2C(C)(C)CCC[C@]2(C)[C@H]1COC(C(=O)OC)C(CC(=O)O)C(=O)O[C@H]1CC(C)(C)[C@@H]2CC=C(C=O)[C@H](C=O)[C@@]2(C)C1` (stereo partly drawn) [TG 101], the Solubility entry in “Solubility” is given as “Easily soluble”.

In the case of `C=C1CC[C@H]2C(C)(C)CCC[C@]2(C)[C@H]1COC(C(=O)OC)C(CC(=O)O)C(=O)O[C@H]1CC(C)(C)[C@@H]2CC=C3COC(O)[C@@H]3[C@@]2(C)C1` (stereo partly drawn) [TG 103], the Solubility result in “Solubility” is given as “Easily soluble”. Turning to `OC(Cn1cncn1)(Cn1cncn1)c1ccc(F)cc1F` [Diflucan, reference compound], in the data set with Candida albicans [3] (TIMM1623), the MIC was determined as 25 µg/mL (≈ 81.6 µM). With `C=C1CC[C@H]2[C@](C)(CO)CCC[C@]2(C)[C@H]1COC(C(=O)OC)C(CC(=O)O)C(=O)OC` (stereo partly drawn) [Cryptoporic acid B], the MIC in the data set with Candida albicans [3] (setting [5]) was determined as 25 µg/mL (≈ 56.7 µM); in the data set on Aspergillus fumigatus [4], 200 µg/mL (≈ 454 µM). `C=C1CCC2C3(C)CCCC2(C)C1COC(C(=O)OC)C(CC(=O)O)C(=O)OCC1(C)CCCC2(C)C(COC(C(=O)OC)C(CC(=O)O)C(=O)OC3)C(=C)CCC12` (stereo not drawn) [Cryptoporic acid D]: the MIC in the data set with Candida albicans [3] (setting [5]) amounted to 100 µg/mL (≈ 122 µM). Take `C=C1CC[C@H]2C(C)(C)CCC[C@]2(C)[C@H]1COC(C(=O)OC)C(CC(=O)O)C(=O)OC` (stereo partly drawn) [Cryptoporic acid A]: the MIC in the data set with Candida albicans [3] (setting [5]) was 25 µg/mL (≈ 58.9 µM).
